Assay results as given in patent US20190343860A1 (Saint Louis University, priority 2016, published 2019).

Assays:
[1] = test system: intraepidermal nerve fibers (IENFs); experiment: Incidence of intraepidermal nerve fibers (IENFs) in chemotherapy-treated rats; settings: p<0.05
[2] = Oxaliplatin-induced mechano-hypersensitivity (paw withdrawal threshold, von Frey); type: in vivo, rat; settings: 0.1 mg/kg/d i.p. concomitant with oxaliplatin
Excerpt: Mean±SEM, n=6/group, ANOVA with Bonferroni comparisons. *P<0.05 vs. day 0; #P<0.05 vs. vehicle &†P<0.05 vs. Oxaliplatin.

[3] = test system: mitochondria in peripheral sensory afferents (PNSAs); experiment: Mitochondrial ATP production in peripheral sensory afferents after in vivo treatment; parameters: species or system rat; settings: 0.1 mg/kg/d i.p. concomitant with oxaliplatin
Description: ATP assays. Saphenous nerves were harvested from rats 25 days after the initiation of chemotherapy treatments, then minced & teased apart as previously described. Saphenous nerve explants were transferred to MiR05 respiratory buffer & baseline ATP samples were taken after 5 min or after 15 min treatment with MRS5980 or vehicle. ADP (1 mM), glutamate (5 mM), succinate (5 mM), maleate (5 mM) were added for 5 min & samples were taken for ATP. ATP levels were measured by a flash luciferin-luciferase assay (Promega Enliten ATP Assay; Promega, Madison, Wis.) & normalized to citrate synthase activity (Sigma, St Louis, Mo.) in explants homogenates.

[4] = test system: intraepidermal nerve fibers (IENFs); settings: rat, in vivo

Compound: CNC(=O)[C@@]12C[C@@H]1[C@@H](n1cnc3c(NCc4cccc(Cl)c4)nc(C#Cc4ccc(F)c(F)c4)nc31)[C@H](O)[C@@H]2O [MRS5698]
- Incidence of IENFs vs. oxaliplatin alone ([1]; rats treated with oxaliplatin+MRS5698): significantly more IENFs
- Incidence of IENFs vs. paclitaxel alone ([1]; rats treated with paclitaxel+MRS5698): significantly more IENFs
- Development of mechano-hypersensitivity (Paw Withdrawal Threshold) [2]: prevents
- Mitochondrial ATP production in PNSAs [3]: prevents the deficiencies in mitochondrial ATP production

Compound: CC(=O)O[C@H]1C(=O)[C@@]2(C)[C@H]([C@H](OC(=O)c3ccccc3)[C@]3(O)C[C@H](OC(=O)[C@H](O)[C@@H](NC(=O)c4ccccc4)c4ccccc4)C(C)=C1C3(C)C)[C@]1(OC(C)=O)CO[C@@H]1C[C@@H]2O [paclitaxel]
- Incidence of IENFs vs. Naive rats [4]: statistically significantly fewer IENFs
